Assay results as given in patent US6489295B1, “Antagonists of intestinotrophic GLP-2 peptides” (1149336 Ontario Inc., priority 1996, dated 2002).
Like-named read-outs stand apart in the source and are kept apart here. Non-standard residues stand in square brackets, D forms with d. Residues, ends and D or L forms follow the SMILES beside them. No end group written: not given here. pY = N[C@@H](Cc1ccc(OP(=O)(O)O)cc1)C(=O)O

Experiments:
human placental DPP-IV [1] = target: T1, human placental DPP-IV (Homo sapiens, UniProt P27487)
T1 sequence (P27487 whole entry): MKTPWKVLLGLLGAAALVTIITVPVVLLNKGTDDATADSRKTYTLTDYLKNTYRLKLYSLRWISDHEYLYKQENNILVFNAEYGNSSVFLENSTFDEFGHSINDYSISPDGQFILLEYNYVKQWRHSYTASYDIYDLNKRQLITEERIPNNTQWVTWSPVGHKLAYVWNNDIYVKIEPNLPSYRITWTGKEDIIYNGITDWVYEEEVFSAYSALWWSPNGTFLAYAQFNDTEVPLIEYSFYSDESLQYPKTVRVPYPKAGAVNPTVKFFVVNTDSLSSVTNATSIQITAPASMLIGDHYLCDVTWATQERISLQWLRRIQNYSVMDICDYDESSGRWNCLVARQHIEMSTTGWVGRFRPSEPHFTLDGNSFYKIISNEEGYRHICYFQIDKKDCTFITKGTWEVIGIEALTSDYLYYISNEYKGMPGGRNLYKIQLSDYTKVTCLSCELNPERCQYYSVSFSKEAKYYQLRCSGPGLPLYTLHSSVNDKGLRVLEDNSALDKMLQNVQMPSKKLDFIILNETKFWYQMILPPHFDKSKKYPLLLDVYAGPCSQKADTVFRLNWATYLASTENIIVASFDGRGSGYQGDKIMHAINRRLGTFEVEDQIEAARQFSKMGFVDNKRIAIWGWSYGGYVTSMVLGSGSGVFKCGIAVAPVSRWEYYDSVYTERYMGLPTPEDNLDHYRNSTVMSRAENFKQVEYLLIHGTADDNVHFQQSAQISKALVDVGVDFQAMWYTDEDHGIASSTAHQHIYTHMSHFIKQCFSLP
Method: (§1) To perform the assay, 2.5 microliters (μl) of a solution of human placental DPP-IV (Calbiochem, La Jolla, Calif., cat. # 317624) containing 0.125 milliunits (mU) of enzyme in 50% glycerol, mM Tris, pH 7.8, EDTA and 0.02% NaN3 was added to 50 μl of a solution of the test peptide prepared at a concentration of 0.2 mg/ml in PBS at pH 7.4. The mixture was incubated at 37° C. in a circulating water bath for 24 hours. The incubation was quenched by the addition of 50 μl of a solution of diprotin A prepared at a concentration of 4 mg/ml in PBS. Each peptide was tested in duplicate.
(§2) Each sample was analyzed by reverse-phase (RP) HPLC as follows: 90 μl of the quenched incubation mixture was injected onto a Rainin Dynamax 300 Å, C18, 5 micron, 4.6×250 millimeter column. The samples were eluted with 0.1% trifluoroacetic acid (TFA) in water modified with 0.1% acetonitrile using a linear gradient and a flow rate of 1 ml per minute. Sample components were detected at 214 nanometers (nm). The extent of cleavage was measured by relative integration of the peak corresponding to the cleavage product compared to that of the remaining undigested parent peptide.

[2] = system: intestinotrophic activity of rat GLP-2; test: GLP-2 antagonist assessment by co-administration into mice with GLP-2 (small bowel weight); assay type: in vivo; settings: CD1 female mice, 10-14 days
Method: The candidate peptide antagonist and rat GLP-2 were dissolved in PBS to give a final ratio of 25 μg antagonist/2.5 μg GLP-2 per 0.5 ml phosphate buffered saline solution (for a 10:1 ratio), or […] antagonist/2.5 μg GLP-2 per 0.5 ml phosphate buffered saline solution (for a 4:1 ratio), as indicated. The antagonist/GLP-2 mixture was administered to 6-8 week old CD1 female mice subcutaneously, with the amount of peptide injected being 25 μg antagonist/2.5 μg GLP-2 in 0.5 ml twice a day, or 12.5 μg antagonist/2.5 μg GLP-2 in 0.5 ml twice a day. After 10-14 days, peptide-injected and control (saline-injected) mice were sacrificed, and small bowel weights were determined.

human placental DPP-IV [3] = target: T1, human placental DPP-IV; test: Assay for resistance to dipeptidyl peptidase IV; settings: 24 hours at 37° C., RP-HPLC
Method: as §1, §2

[4] = antagonist to GLP-2 ratio 10:1 by weight (25 μg/2.5 μg rat GLP-2) s.c. twice a day

cleavage products detected after DPP-IV incubation (human placental DPP-IV [1]) | Compound | further results
No cleavage products were detected | HGDGSFSDEMNTILDNLAARDFINWLIQTKIAD [[Gly^2, Ala^32]GLP-2] | –
No cleavage products were detected | HWDGSFSDEMNTILDNLAARDFINWLIQTKITD [[Trp^2]GLP-2] | –
No cleavage products were detected | HGDGSFSDEMNTILDNLAARDAINWLIQTKITD [[Gly^2, Ala^22]GLP-2] | –
No cleavage products were detected | CC[C@H](C)[C@H](NC(=O)[C@H](Cc1ccccc1)NC(=O)[C@H](CC(=O)O)NC(=O)[C@H](CCCNC(=N)N)NC(=O)[C@H](C)NC(=O)[C@H](C)NC(=O)[C@H](CC(C)C)NC(=O)[C@H](CC(N)=O)NC(=O)[C@H](CC(=O)O)NC(=O)[C@H](CC(C)C)NC(=O)[C@@H](NC(=O)[C@@H](NC(=O)[C@H](CC(N)=O)NC(=O)[C@H](CCSC)NC(=O)[C@H](CCC(=O)O)NC(=O)[C@H](CC(=O)O)NC(=O)[C@H](CO)NC(=O)[C@H](Cc1ccccc1)NC(=O)[C@H](CO)NC(=O)CNC(=O)[C@H](CC(=O)O)NC(=O)[C@H](Cc1ccc(OP(=O)(O)O)cc1)NC(=O)[C@@H](N)Cc1c[nH]cn1)[C@@H](C)O)[C@@H](C)CC)C(=O)N[C@@H](CC(N)=O)C(=O)N[C@@H](Cc1c[nH]c2ccccc12)C(=O)N[C@@H](CC(C)C)C(=O)N[C@H](C(=O)N[C@@H](CCC(N)=O)C(=O)N[C@H](C(=O)N[C@@H](CCCCN)C(=O)N[C@H](C(=O)N[C@H](C(=O)N[C@@H](CC(=O)O)C(=O)O)[C@@H](C)O)[C@@H](C)CC)[C@@H](C)O)[C@@H](C)CC [[PO3-Tyr^2]GLP-2] (H-H[pY]DGSFSDEMNTILDNLAARDFINWLIQTKITD-OH; N-terminus and C-terminus assumed) | –
No cleavage products were detected | HGDGSFSDEMNTILDNLAARDFINWLIQTKITA [[Gly^2, Ala^33]GLP-2] | –
No cleavage products were detected | HGDGSFSDEMNTILANLAARDFINWLIQTKITD [[Gly^2, Ala^15]GLP-2] | –
No cleavage products were detected | HEDGSFSDEMNTILDNLAARDFINWLIQTKITD [[Glu^2]GLP-2] | –
No cleavage products were detected | HGDGSFSDEMNTILDNLAARDFINWLIQAKITD [[Gly^2, Ala^29]GLP-2] | –
No cleavage products were detected | HLDGSFSDEMNTILDNLAARDFINWLIQTKITD [[Leu^2]GLP-2] | –

More lines, now with the values behind:

Compound | cleavage products detected after DPP-IV incubation (human placental DPP-IV [1]) | further results
HRDGSFSDEMNTILDNLAARDFINWLIQTKITD [[Arg^2]GLP-2] | No cleavage products were detected | –
ratGLP-2(3-33) | – | % Antagonism ([2]; antagonist to GLP-2 ratio 4:1 by weight (12.5 μg/2.5 μg rat GLP-2) s.c. twice a day): 33%
[D-Ala^2]ratGLP-2 | – | cleavage products detected after DPP-IV incubation (human placental DPP-IV [3]): No cleavage products were detected
ratGLP-2(4-33) | – | % Antagonism [2, 4]: 32%
HCDGSFSDEMNTILDNLAARDFINWLIQTKITD [[Cys^2]GLP-2] | No cleavage products were detected | –
ratGLP-2(5-33) | – | % Antagonism [2, 4]: 16%
ratGLP-2(2-33) | – | % Antagonism [2, 4]: 42%
[Gly^2]ratGLP-2 | – | cleavage products detected after DPP-IV incubation (human placental DPP-IV [3]): No cleavage products were detected
